Structures are written as SMILES.

This experiment deals with Plasmodium falciparum. In words: GSK_TCMDC: Inhibition of Plasmodium falciparum 3D7 in whole erythrocytes, using parasite LDH activity as an index of growth. As to conditions: Plasmodium falciparum, 3D7. The format is functional, organism-based.
`CO/C(=C\C=C\c1cc2cc(Cl)c(Cl)cc2[nH]1)C(=O)NCCCNCCN(C)c1ccccc1`: the XC50 turned out to be 784 nM.
`O=C(Nc1ccc(OC2CCN(Cc3ccc(F)cc3)C2)c(Cl)c1)c1ccccc1` (stereo not drawn) gave an XC50 of 787 nM.
`Oc1ccccc1CN1CCC2(CCCN(Cc3ccccc3F)C2)C1` (stereo not drawn) came in with an XC50 of 679 nM.
To `Cc1cc(CN2CCC(Nc3ncc(-c4ccsc4)c4nc(C(F)(F)F)ccc34)CC2)no1` belongs 1100 nM; to `O=C(Nc1ccc(F)c([N+](=O)[O-])c1)Nc1cc(C(F)(F)F)ccc1Cl`, 861 nM; to `COc1ccc(-c2cnc3[nH]cc(-c4ccc(C(=O)O)c(C)c4)c3c2)cn1`, 311 nM.
To `COc1ccc(C2CC(c3cccs3)=NN2C(=O)c2ccco2)cc1OC` (stereo not drawn) belongs 172 nM; to `CC(C)(C)C(=O)Nc1ccc(N2CCN(C(c3ccccc3)c3ccccc3)CC2)c(Cl)c1`, 662 nM; to `CN1CCN(CC(=O)Nc2ccc(-c3cccc(-c4nc5cc(C(F)(F)F)ccc5[nH]4)c3)cc2)CC1`, 399 nM.
To `Cc1cccc2nc(-c3ccc(-c4cccc(NC(=O)c5cnccc5C(F)(F)F)c4)cc3)[nH]c12` belongs 998 nM; to `CC(Cc1ccc(OC2CCCCC2)cc1)NCC(O)c1cccc(Cl)c1` (stereo not drawn), 138 nM; to `O=C(c1ccc(Cl)cc1)C1CCCN(C2CCN(CCc3ccccc3)CC2)C1` (stereo not drawn), 1450 nM.
On to `CC(C)c1ccc2[nH]c(C(=O)NC3CCC(N4CCCc5ccc(C#N)cc5C4)CC3)cc2c1` (stereo not drawn), for which the XC50 came out at 1090 nM.
The value for `O=C(NCCCCN1CCC(c2ccc3c(c2OCc2ccncc2)CCCC3)CC1)c1ccc(-c2ccc(C(F)(F)F)cc2)cc1` was 168 nM; that for `Cc1c(C)n(Cc2ccccc2)c2ncnc(OC3CCN(CC(=O)NCC4CC4)CC3)c12` was 1120 nM.
To `CCCCCCCCNCC(O)c1cc(-c2ccc(Cl)cc2)nc2cc(C)ccc12` (stereo not drawn) belongs 82.3 nM; to `NC(=O)Nc1ccc2cn[nH]c2c1`, 205 nM.
To `COc1cc(F)c2ncc(Cl)c(C(O)CN3CCC(NC(=O)c4ccc5c(c4)NC(=O)CS5)CC3)c2c1` (stereo not drawn) belongs 680 nM; to `CCCCNCc1ccc(-c2nc(CN(CCCN3CCN(C)CC3)C(=O)Nc3cccc(Cl)c3)cs2)cc1`, 967 nM.
The compound `COc1cc2c(cc1S(=O)(=O)c1ccc(COc3ccc(C(F)(F)F)cc3)cc1)CNCC2` displayed an XC50 of 746 nM.
The value for `OC(CNCCCCCCNCC(O)c1ccc(Cl)c(Cl)c1)c1ccc(Cl)c(Cl)c1` (stereo not drawn) was 915 nM; that for `COc1c(C2CCN(CCCCNC(=O)c3ccc(-c4ccc(Cl)cc4)cc3)CC2)ccc2c1C(C)(C)CCC2(C)C` was 777 nM.
As to `CS(=O)(=O)c1ccc(CNCc2ccc(-c3ccc(-c4nc5cc(C(F)(F)F)ccc5[nH]4)cc3)cc2)cc1`, the XC50 came out at 706 nM.
In the case of `c1ccc2[nH]c(Nc3ccc(Nc4nc5ccccc5[nH]4)cc3)nc2c1`, the XC50 turned out to be 783 nM.
To `O=S(=O)(NCCN1CCCC1)c1ccc(-c2ccccc2CNC2Cc3ccccc3C2)cc1` belongs 847 nM; to `c1ccc2[nH]c(-c3ccc(-c4ccc(CN5CCN(c6ccncc6)CC5)cc4)s3)nc2c1`, 202 nM; to `Cc1cc(N[C@@H](CC(C)C)C(=O)NCc2cccs2)nc(Nc2ccccc2)n1`, 1130 nM.
To `COc1ccc2nccc([C@@H](O)CN3CCC(NCc4cnc5snnc5c4)C(F)C3)c2c1` (stereo partly drawn) belongs 1350 nM.
To `O=C(/C=C/c1ccc(Cl)c(Cl)c1)NCC1CCN(Cc2ccc(O)cc2)CC1` belongs 694 nM; to `COc1ccc(-c2nc(NC(=O)CS(=O)(=O)c3ccc(C)cc3)sc2C)cc1`, 401 nM.
In turn, `NC1=NC(c2ccccc2)(c2ccccc2)C(=O)N1Cc1ccc(-c2cccnc2)cc1` returned an XC50 of 704 nM.
With `CN(C)CCOc1cc(NC(=O)Nc2ccc(-c3ccncc3)c(Cl)c2)ccc1I`, the XC50 was 143 nM.
In turn, `CCCCCCNC(=O)C1Cc2c([nH]c3ccc(C)cc23)C2(CCN(CCc3ccccc3)CC2)N1` (stereo not drawn) gave an XC50 of 1270 nM.
The value for `COc1ccc(-c2ccccc2CNC2Cc3ccccc3C2)cc1S(=O)(=O)NCCN1CCCC1` was 870 nM.
In the case of `O=C(Nc1cccc(CN2CCCN(Cc3cccc(F)c3)CC2)c1)c1ccc(Cl)c(Cl)c1`, the XC50 is 923 nM.
Take `O=C(N[C@@H](Cc1ccccc1)C(=O)NC1CCCc2ccccc21)c1ccc(O)c(-c2ccc(Cl)c(Cl)c2)c1` (stereo partly drawn): the XC50 is 209 nM.
The value for `O=C(Nc1ccc(Cl)cc1)c1ccc(CN2CCCN(Cc3ccccc3)CC2)cc1` was 753 nM; that for `N#Cc1cccc(C(=O)Nc2cccc(-c3cccc(CN4CCNCC4)c3)c2)c1` was 947 nM.
As for `CCc1c(CCNCC/C=C/CCNCCc2ccc(OC)c(OC)c2CC)ccc(OC)c1OC`, the XC50 came to 771 nM.
Turning to `Cc1ccc(NC(=O)Nc2ccc(Br)cc2)cc1OCCN(C)C`, the XC50 was determined as 975 nM.
The value for `CN1CCN(Cc2ccc(-c3cccc(-c4nc5ccccc5[nH]4)c3)cc2)CC1` was 1390 nM; that for `CCOc1cc(CNCCCCCCNCc2cc(OCC)c(OCC)c3ccccc23)c2ccccc2c1OCC` was 284 nM.
For `CCNc1cc(C)nc(Nc2ccc(NS(=O)(=O)c3ccccc3)cc2)n1`, the XC50 turned out to be 791 nM.
To `O=C(c1ccc(Cl)cc1)N1CCCC(C(=O)N(Cc2nnc(-c3ccccc3Cl)o2)C2CC2)C1` (stereo not drawn) belongs 227 nM; to `Nc1ccc(-c2cc(Cl)cc(Cl)c2)cc1-c1cc2ccccc2[nH]1`, 695 nM.
Turning to `CCOC(=O)c1c(C)n(-c2ccc(Cl)cc2)c2ccc(OC(=O)C=Cc3ccccc3)cc12`, the XC50 came out at 698 nM.
To `COc1ccc(-c2cnc3ccc(NCCCO)nn23)cc1OC` belongs 672 nM.
The value for `COc1cccc2c(NCCNc3ccnc4c(OC)cccc34)ccnc12` was 267 nM.
To `CCCCCC(C)c1cc(O)c2c(c1)OC(C)(C)C=C2C1=CCN(Cc2ccccc2)CC1` (stereo not drawn) belongs 780 nM.
In turn, `Cc1[nH]c2cc(Cl)ccc2c1C1=CCN(CCCCC2(C)C(=O)Nc3ccccc32)CC1` (stereo not drawn) returned an XC50 of 333 nM.
To `CC(=O)Nc1cccc(C(=O)Nc2ccc(-c3ccc(-c4nc5cccc(C)c5[nH]4)s3)cc2)c1` belongs 1740 nM.
For `Cc1ccc(CNC(=O)c2cnc(N3CCN(c4ccncc4)CC3)c(Cl)c2)cc1`, the XC50 stood at 1290 nM.
The value for `Cc1cc(N2CCCCC2)nc2ccc(NC(=O)c3cncc(Br)c3)cc12` was 718 nM; that for `CC[C@H](C)CNC(=O)c1cncc(-c2cccc(CNCCCc3ccccc3)c2)c1` was 1170 nM.
The value for `O=C(NC1CCN(Cc2ccccc2)CC1)c1cccc(-c2nc3ccc(Cl)cc3[nH]2)c1` was 864 nM; that for `CCOc1ccc2[nH]c(-c3ccccc3)cc(=NN=Cc3ccncc3)c2c1` was 149 nM; that for `C=CCOC(=O)N1CCC(CNCc2cccc(-c3cccc(-c4nc5ccccc5[nH]4)c3)c2)C1` (stereo not drawn) was 340 nM.
The value for `CN1CCC(N2CCN(Cc3ccc(-c4cccc(-c5nc6ccccc6[nH]5)c4)cc3)CC2)CC1` was 145 nM.
Take `COc1ccc(-n2ccnc2SCC(=O)Nc2cccc(C(F)(F)F)c2)c(OC)c1`: the XC50 was determined as 220 nM.
The value for `CC(C)(C)OC(=O)NCC(=O)N(Cc1ccccc1)Cc1ccccc1` was 124 nM; that for `CN(Cc1ccccc1)C1CCN(CCc2c[nH]c3ccc(F)cc23)CC1` was 597 nM; that for `OC(CNC1CCCCC1)Cn1c2ccc(I)cc2c2cc(I)ccc21` (stereo not drawn) was 337 nM.
To `Cc1cc(N)c2cc(NC(=O)/C=C/c3ccccc3Cl)ccc2n1` belongs 405 nM.

Source of the values: ChEMBL document CHEMBL1157539, “Thousands of chemical starting points for antimalarial lead identification” (Nature, 2010).
